Results: patent US9073813B2, “Process for the preparation of protoescigenin” (INSTYTUT FARMACEUTYCZNY, priority 2011, dated 2015)

Test: Thermal stability of the crystalline form (X-ray diffraction over temperature loop 25° C.→30 min at 110° C.→25° C.)
Assay type: physicochemical
Description: Protoescigenin monohydrate is stable under ambient conditions, up to 100° C. X-ray diffraction measurements of monohydrate were done at the following temperature loop: 25° C.→30 min at 110° C.→25° C.
X-ray powder diffraction (XRPD) studies were performed by means of the MiniFlex diffractometer (Rigaku Coporation, Tokyo Japan) using CuKα radiation (λ=1.54056 Å) with following parameters: • Scanning range 2θ: from 3° to 40° • Scanning speed: 0.5°/min • Measurement step: 2θ: 0.02° • Measurement temperature: ambient temperature • Detector: scintillator

CC1(C)CC2C3=CCC4[C@@]5(C)CC[C@H](O)[C@](C)(CO)C5CC[C@@]4(C)[C@]3(C)C[C@@H](O)[C@@]2(CO)[C@@H](O)[C@@H]1O (some centres unmarked) [Protoescigenin monohydrate, protoescigenin monohydrate]
form change on heating (X-ray diffraction) (after heating for 30 min at 110° C., loop 25° C.→110° C.→25° C.): changes to a different form, called form V
stable under ambient conditions, up to (temperature) (solid state, ambient conditions): up to 100 °C
